According to patent US10519154B2, “7-substituted 1-pyridyl-naphthyridine-3-carboxylic acid amides and use thereof” (Bayer Pharma Aktiengesellschaft, priority 2016, dated 2019):

Target: T1, human M2 receptor (Homo sapiens, UniProt P08172)
T1 sequence (P08172 1-466): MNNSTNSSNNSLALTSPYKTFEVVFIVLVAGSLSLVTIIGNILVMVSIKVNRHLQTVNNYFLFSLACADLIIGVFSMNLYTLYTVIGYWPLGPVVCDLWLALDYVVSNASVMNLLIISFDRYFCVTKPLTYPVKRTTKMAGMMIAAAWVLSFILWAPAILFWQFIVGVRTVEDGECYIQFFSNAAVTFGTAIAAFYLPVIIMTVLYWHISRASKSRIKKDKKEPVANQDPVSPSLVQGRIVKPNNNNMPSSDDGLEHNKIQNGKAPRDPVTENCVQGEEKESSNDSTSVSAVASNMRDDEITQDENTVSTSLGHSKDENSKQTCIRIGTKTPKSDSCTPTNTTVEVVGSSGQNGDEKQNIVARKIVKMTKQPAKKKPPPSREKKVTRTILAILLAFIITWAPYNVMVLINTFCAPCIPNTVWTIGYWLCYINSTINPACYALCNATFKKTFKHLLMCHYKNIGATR
Test: Functional M2-GIRK1/4 activation test: allosteric potency (EC50) and efficiency
Conditions: for EC50: Receptor activity EC50, CHO-DUKX-M2-GIRK cells, acetylcholine at EC20, in some cases mean of two or more determinations; for Emax: read-out: Efficiency, boosting of the acetylcholine effect at EC20 acetylcholine concentration; for Emax / Efficiency: CHO-DUKX-M2-GIRK cells; for Efficiency: boosting of the acetylcholine effect at EC20 acetylcholine concentration

EC50 | Emax | Efficiency | Structure (SMILES)
108 nM | 95.5% | – | CC[C@H](NC(=O)c1cn(-c2ncc(F)cc2F)c2nc(N3CC(O)(C(F)(F)F)C3)ccc2c1=O)C(F)(F)F [Example 131, 1-(3,5-Difluoropyridin-2-yl)-7-[3-hydroxy-3-(trifluoromethyl)azetidin-1-yl]-4-oxo-N-[(2S)-1,1,1-trifluorobutan-2-yl]-1,4-dihydro-1,8-naphthyridine-3-carboxamide]
28 nM | 100% | – | CC(NC(=O)c1cn(-c2ncc(F)cc2F)c2nc(N3CCCC[C@@H]3CO)ccc2c1=O)C(F)(F)C(F)(F)F (single isomer, unassigned) [Example 176]
1600 nM | 98% | – | CC1(NC(=O)c2cn(-c3ncc(F)cc3F)c3nc(N4C[C@@H](O)CC4=O)ccc3c2=O)CC(F)(F)C1 [Example 172, N-(3,3-Difluoro-1-methylcyclobutyl)-1-(3,5-difluoropyridin-2-yl)-7-[(4S)-4-hydroxy-2-oxopyrrolidin-1-yl]-4-oxo-1,4-dihydro-1,8-naphthyridine-3-carboxamide]
38 nM | 100% | – | CC(C)(C)[C@H](NC(=O)c1cn(-c2ncc(F)cc2F)c2nc(N3C[C@@H](O)[C@H](O)C3)ccc2c1=O)C(F)(F)F [Example 99, 1-(3,5-Difluoropyridin-2-yl)-7-[(3R,4R)-3,4-dihydroxypyrrolidin-1-yl]-4-oxo-N-[(2S)-1,1,1-trifluoro-3,3-dimethylbutan-2-yl]-1,4-dihydro-1,8-naphthyridine-3-carboxamide]
95 nM | 100% | – | O=C(NC(C(F)(F)F)C(F)(F)F)c1cn(-c2ncc(F)cc2F)c2nc(N3CCC(O)(CO)CC3)ccc2c1=O [Example 179]
220 nM | 100% | – | O=C(N[C@@H](C1CC1)C(F)(F)F)c1cn(-c2ncc(F)cc2F)c2nc(N3C[C@@H](O)[C@@H](O)C3)ccc2c1=O [Example 62, N-[(1S)-1-Cyclopropyl-2,2,2-trifluoroethyl]-1-(3,5-difluoropyridin-2-yl)-7-[(3R,4S)-3,4-dihydroxypyrrolidin-1-yl]-4-oxo-1,4-dihydro-1,8-naphthyridine-3-carboxamide]
44 nM | – | 91.50% | CC(NC(=O)c1cn(-c2ncc(F)cc2F)c2nc(N3C[C@@H](O)CC3=O)ccc2c1=O)C(F)(F)C(F)(F)F (single isomer, unassigned) [Example 78]
330 nM | 87% | – | CC[C@@H](NC(=O)c1cn(-c2ncc(F)cc2Cl)c2nc(N3C[C@@H](O)CC3=O)ccc2c1=O)C(F)(F)F [Example 20, 1-(3-Chloro-5-fluoropyridin-2-yl)-7-[(4S)-4-hydroxy-2-oxopyrrolidin-1-yl]-4-oxo-N-[(2R)-1,1,1-trifluorobutan-2-yl]-1,4-dihydro-1,8-naphthyridine-3-carboxamide]
110 nM | – | 99.00% | O=C(N[C@H](C1CC1)C(F)(F)F)c1cn(-c2ncccc2F)c2nc(N3CC4C[C@@]4(O)C3)ccc2c1=O (single isomer, unassigned) [Example 137]
55 nM | 100% | – | O=C(NC(c1ccc(F)cc1)C(F)(F)F)c1cn(-c2ncc(F)cc2F)c2nc(N3C[C@@H](O)CC3=O)ccc2c1=O (single isomer, unassigned) [Example 12]
32 nM | – | 100.00% | O=C(NC(c1ccccc1Cl)C(F)(F)F)c1cn(-c2ncc(F)cc2F)c2nc(N3CCNC3=O)ccc2c1=O (single isomer, unassigned) [Example 149, N-[1-(2-Chlorophenyl)-2,2,2-trifluoroethyl]-1-(3,5-difluoropyridin-2-yl)-4-oxo-7-(2-oxoimidazolidin-1-yl)-1,4-dihydro-1,8-naphthyridine-3-carboxamide]
190 nM | – | 94.50% | CC[C@H](NC(=O)c1cn(-c2ncc(F)cc2F)c2nc(N3CC(O)C(C)C3=O)ccc2c1=O)C(F)(F)F (single isomer, unassigned) [Example 110]
130 nM | 100% | – | CC(C)(NC(=O)c1cn(-c2ncc(F)cc2F)c2nc(N3CC(CO)(CO)C3)ccc2c1=O)C(F)(F)C(F)(F)F [Example 184, 7-[3,3-Bis(hydroxymethyl)azetidin-1-yl]-1-(3,5-difluoropyridin-2-yl)-4-oxo-N-(3,3,4,4,4-pentafluoro-2-methylbutan-2-yl)-1,4-dihydro-1,8-naphthyridine-3-carboxamide]
400 nM | 100% | – | CC[C@H](NC(=O)c1cn(-c2ncc(F)cc2F)c2nc(N3CCCN(CCO)C3=O)ccc2c1=O)C(F)(F)F [Example 120, 1-(3,5-Difluoropyridin-2-yl)-7-[3-(2-hydroxyethyl)-2-oxotetrahydropyrimidin-1(2H)-yl]-4-oxo-N-[(2S)-1,1,1-trifluorobutan-2-yl]-1,4-dihydro-1,8-naphthyridine-3-carboxamide]
795 nM | 100% | – | O=C(N[C@@H](C1CC1)C(F)(F)F)c1cn(-c2ncc(F)cc2F)c2nc(N3C[C@H](O)[C@@H](O)C3)ccc2c1=O [Example 61, N-[(1S)-1-Cyclopropyl-2,2,2-trifluoroethyl]-1-(3,5-difluoropyridin-2-yl)-7-[(3S,4S)-3,4-dihydroxypyrrolidin-1-yl]-4-oxo-1,4-dihydro-1,8-naphthyridine-3-carboxamide]
145 nM | 92% | – | O=C(NC(c1cccc(F)c1)C(F)(F)F)c1cn(-c2ncccc2Cl)c2nc(N3C[C@@H](O)CC3=O)ccc2c1=O (stereo partly drawn) [Example 23, 1-(3-Chloropyridin-2-yl)-7-[(4S)-4-hydroxy-2-oxopyrrolidin-1-yl]-4-oxo-N-[2,2,2-trifluoro-1-(3-fluorophenyl)ethyl]-1,4-dihydro-1,8-naphthyridine-3-carboxamide]
66 nM | 100% | – | O=C(NC(c1ccccc1Cl)C(F)(F)F)c1cn(-c2ncc(F)cc2F)c2nc(N3CCNC3=O)ccc2c1=O (single isomer, unassigned) [Example 148, N-[1-(2-Chlorophenyl)-2,2,2-trifluoroethyl]-1-(3,5-difluoropyridin-2-yl)-4-oxo-7-(2-oxoimidazolidin-1-yl)-1,4-dihydro-1,8-naphthyridine-3-carboxamide]
730 nM | 92% | – | O=C(N[C@H](C1CC1)C(F)(F)F)c1cn(-c2ncc(F)cc2Cl)c2nc(N3C[C@@H](O)[C@@H](O)C3)ccc2c1=O [Example 50, 1-(3-Chloro-5-fluoropyridin-2-yl)-N-[(1R)-1-cyclopropyl-2,2,2-trifluoroethyl]-7-[(3R,4S)-3,4-dihydroxypyrrolidin-1-yl]-4-oxo-1,4-dihydro-1,8-naphthyridine-3-carboxamide]
335 nM | 96% | – | CC1C(O)C2(CC2)C(=O)N1c1ccc2c(=O)c(C(=O)N[C@@H](C)C(F)(F)F)cn(-c3ncc(F)cc3F)c2n1 (stereo partly drawn) [Example 116, 1-(3,5-Difluoropyridin-2-yl)-7-[7-hydroxy-6-methyl-4-oxo-5-azaspiro[2.4]hept-5-yl]-4-oxo-N-[(2S)-1,1,1-trifluoropropan-2-yl]-1,4-dihydro-1,8-naphthyridine-3-carboxamide]
19 nM | 100% | – | CC(C)(C)[C@@H](NC(=O)c1cn(-c2ncc(F)cc2F)c2nc(N3C[C@@H](O)[C@H](O)C3)ccc2c1=O)C(F)(F)F [Example 86, 1-(3,5-Difluoropyridin-2-yl)-7-[(3R,4R)-3,4-dihydroxypyrrolidin-1-yl]-4-oxo-N-[(2R)-1,1,1-trifluoro-3,3-dimethylbutan-2-yl]-1,4-dihydro-1,8-naphthyridine-3-carboxamide]
115 nM | 90.5% | – | O=C(NC(C(F)(F)F)C(F)(F)F)c1cn(-c2ncc(F)cc2F)c2nc(N3CCNC3=O)ccc2c1=O [Example 158, 1-(3,5-Difluoropyridin-2-yl)-N-(1,1,1,3,3,3-hexafluoropropan-2-yl)-4-oxo-7-(2-oxoimidazolidin-1-yl)-1,4-dihydro-1,8-naphthyridine-3-carboxamide]
310 nM | 92.5% | – | O=C(Nc1c(Cl)cccc1Cl)c1cn(-c2ncc(F)cc2F)c2nc(N3C[C@@H](O)[C@@H](O)C3)ccc2c1=O [Example 66, N-(2,6-Dichlorophenyl)-1-(3,5-difluoropyridin-2-yl)-7-[(3R,4S)-3,4-dihydroxypyrrolidin-1-yl]-4-oxo-1,4-dihydro-1,8-naphthyridine-3-carboxamide]
375 nM | 88% | – | O=C(NC1(C(F)(F)F)CCC1)c1cn(-c2ncc(F)cc2F)c2nc(N3CCNC3=O)ccc2c1=O [Example 150, 1-(3,5-Difluoropyridin-2-yl)-4-oxo-7-(2-oxoimidazolidin-1-yl)-N-[1-(trifluoromethyl)cyclobutyl]-1,4-dihydro-1,8-naphthyridine-3-carboxamide]
790 nM | 92% | – | CC[C@H](NC(=O)c1cn(-c2ncc(F)cc2F)c2nc(N3CCN(CCO)C3=O)ccc2c1=O)C(F)(F)F [Example 119, 1-(3,5-Difluoropyridin-2-yl)-7-[3-(2-hydroxyethyl)-2-oxoimidazolidin-1-yl]-4-oxo-N-[(2S)-1,1,1-trifluorobutan-2-yl]-1,4-dihydro-1,8-naphthyridine-3-carboxamide]
200 nM | 100% | – | CC(NC(=O)c1cn(-c2ncc(F)cc2F)c2nc(N3C[C@@H](O)[C@H](O)C3)ccc2c1=O)(C1CC1)C(F)(F)F (some centres unmarked) [Example 153]
